Laboratory results taken from PubChem BioAssay (NCI).
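Briefly, cells in 96-well plates were exposed to five compound concentrations for 48 h, and endpoints were estimated by linear interpolation. The concentration for full growth arrest is given as TGI.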

Columns and labels:
Test in all cases: NCI anticancer screen, dose series, 48 h
HL-60(TB) leukemia = test system: HL-60(TB) leukemia
SF-539 CNS = test system: SF-539 CNS
NCI-H522 lung = test system: NCI-H522 lung
NCI-H226 lung = test system: NCI-H226 lung
RPMI-8226 leukemia = test system: RPMI-8226 leukemia
TK-10 renal = test system: TK-10 renal
DU-145 prostate = test system: DU-145 prostate
MDA-MB-435 = test system: MDA-MB-435
EKVX NSCLC = test system: EKVX NSCLC
OVCAR-8 ovarian = test system: OVCAR-8 ovarian
SNB-75 CNS = test system: SNB-75 CNS
SK-MEL-2 melanoma = test system: SK-MEL-2 melanoma
T-47D breast = test system: T-47D breast
SF-268 CNS = test system: SF-268 CNS
NCI/ADR-RES ovarian = test system: NCI/ADR-RES ovarian
PC-3 prostate = test system: PC-3 prostate
A498 renal = test system: A498 renal
SW-620 colon = test system: SW-620 colon

## CC1=NN(C(=O)CC(=O)Nc2ccccc2C)C(=O)C1N=Nc1ccc(S(=O)(=O)c2ccc(N=NC3C(=O)N(C(=O)CC(=O)Nc4ccccc4C)N=C3C)cc2)cc1 (stereo unspecified)
HL-60(TB) leukemia
  TGI: > 100 µM
SF-539 CNS
  TGI: > 100 µM
NCI-H522 lung
  TGI: > 100 µM
NCI-H226 lung
  TGI: > 100 µM
RPMI-8226 leukemia
  TGI: > 100 µM
TK-10 renal
  TGI: > 100 µM
DU-145 prostate
  TGI: > 100 µM
MDA-MB-435
  TGI: > 100 µM
EKVX NSCLC
  TGI: > 100 µM
OVCAR-8 ovarian
  TGI: > 100 µM
SNB-75 CNS
  TGI: > 100 µM
SK-MEL-2 melanoma
  TGI: > 100 µM
T-47D breast
  TGI: > 100 µM
SF-268 CNS
  TGI: > 100 µM
NCI/ADR-RES ovarian
  TGI: > 100 µM
PC-3 prostate
  TGI: > 100 µM
A498 renal
  TGI: > 100 µM

## Cc1nc2c(=O)[nH]c3ccccc3c2o1
HL-60(TB) leukemia
  TGI: > 100 µM
SF-539 CNS
  TGI: > 100 µM
NCI-H226 lung
  TGI: > 100 µM
RPMI-8226 leukemia
  TGI: > 100 µM
TK-10 renal
  TGI: > 100 µM
DU-145 prostate
  TGI: > 100 µM
MDA-MB-435
  TGI: > 100 µM
EKVX NSCLC
  TGI: > 100 µM
OVCAR-8 ovarian
  TGI: > 100 µM
SNB-75 CNS
  TGI: > 100 µM
SK-MEL-2 melanoma
  TGI: > 100 µM
SW-620 colon
  TGI: > 100 µM
T-47D breast
  TGI: > 100 µM
SF-268 CNS
  TGI: > 100 µM
NCI/ADR-RES ovarian
  TGI: > 100 µM
PC-3 prostate
  TGI: > 100 µM
A498 renal
  TGI: > 100 µM

## O=C(Cn1c(C(=O)/C=C/c2ccco2)nc2ccccc21)c1ccc(Cl)cc1
HL-60(TB) leukemia
  TGI: 41 µM
SF-539 CNS
  TGI: > 100 µM
NCI-H226 lung
  TGI: > 100 µM
RPMI-8226 leukemia
  TGI: 32.9 µM
TK-10 renal
  TGI: 85.8 µM
DU-145 prostate
  TGI: > 100 µM
MDA-MB-435
  TGI: 32.7 µM
SNB-75 CNS
  TGI: > 100 µM
SK-MEL-2 melanoma
  TGI: 27.8 µM
SW-620 colon
  TGI: > 100 µM
T-47D breast
  TGI: > 100 µM
SF-268 CNS
  TGI: 58.6 µM
NCI/ADR-RES ovarian
  TGI: 30.4 µM
PC-3 prostate
  TGI: 44.2 µM
A498 renal
  TGI: 44.4 µM

## CSc1c(CC(=O)O)n(Cc2ccccc2)c2ccccc12
HL-60(TB) leukemia
  TGI: > 100 µM
SF-539 CNS
  TGI: > 100 µM
NCI-H522 lung
  TGI: > 100 µM
RPMI-8226 leukemia
  TGI: > 100 µM
TK-10 renal
  TGI: > 100 µM
DU-145 prostate
  TGI: > 100 µM
MDA-MB-435
  TGI: > 100 µM
EKVX NSCLC
  TGI: > 100 µM
OVCAR-8 ovarian
  TGI: > 100 µM
SNB-75 CNS
  TGI: > 100 µM
SK-MEL-2 melanoma
  TGI: > 100 µM
SW-620 colon
  TGI: > 100 µM
T-47D breast
  TGI: > 100 µM
SF-268 CNS
  TGI: > 100 µM
NCI/ADR-RES ovarian
  TGI: > 100 µM
PC-3 prostate
  TGI: > 100 µM
A498 renal
  TGI: > 100 µM

## CC/C(Cl)=N\OC(=O)Nc1ccccc1OC(F)(F)F
HL-60(TB) leukemia
  TGI: 3.6 µM
SF-539 CNS
  TGI: 31 µM
NCI-H522 lung
  TGI: 2.9 µM
NCI-H226 lung
  TGI: 38.1 µM
RPMI-8226 leukemia
  TGI: 4.12 µM
TK-10 renal
  TGI: 23.8 µM
DU-145 prostate
  TGI: 33.9 µM
MDA-MB-435
  TGI: 40.7 µM
EKVX NSCLC
  TGI: 15.9 µM
OVCAR-8 ovarian
  TGI: 35.9 µM
SNB-75 CNS
  TGI: 48.2 µM
SK-MEL-2 melanoma
  TGI: 32.8 µM
T-47D breast
  TGI: 14.4 µM
SF-268 CNS
  TGI: > 57.8 µM
NCI/ADR-RES ovarian
  TGI: 35.5 µM
PC-3 prostate
  TGI: 33.5 µM
A498 renal
  TGI: 45.4 µM

## COC(=O)c1cc(C)n2c1CS[C@@H]2c1ccccc1
HL-60(TB) leukemia
  TGI: > 100 µM
NCI-H522 lung
  TGI: 82 µM
NCI-H226 lung
  TGI: 89.1 µM
RPMI-8226 leukemia
  TGI: 84.5 µM
TK-10 renal
  TGI: > 100 µM
DU-145 prostate
  TGI: > 100 µM
MDA-MB-435
  TGI: 79 µM
EKVX NSCLC
  TGI: 93.2 µM
OVCAR-8 ovarian
  TGI: > 100 µM
SNB-75 CNS
  TGI: 81.3 µM
SK-MEL-2 melanoma
  TGI: 91.8 µM
SW-620 colon
  TGI: > 100 µM
T-47D breast
  TGI: 93.1 µM
SF-268 CNS
  TGI: > 100 µM
NCI/ADR-RES ovarian
  TGI: 87 µM
PC-3 prostate
  TGI: > 100 µM
A498 renal
  TGI: 88 µM

## COc1cc(COC(=O)N2CCCCC2C(=O)O)c([N+](=O)[O-])cc1OC (stereo unspecified)
HL-60(TB) leukemia
  TGI: > 100 µM
SF-539 CNS
  TGI: > 100 µM
NCI-H226 lung
  TGI: > 100 µM
RPMI-8226 leukemia
  TGI: > 100 µM
TK-10 renal
  TGI: > 100 µM
DU-145 prostate
  TGI: > 100 µM
MDA-MB-435
  TGI: > 100 µM
EKVX NSCLC
  TGI: > 100 µM
OVCAR-8 ovarian
  TGI: > 100 µM
SNB-75 CNS
  TGI: > 100 µM
SW-620 colon
  TGI: > 100 µM
T-47D breast
  TGI: > 100 µM
SF-268 CNS
  TGI: > 100 µM
NCI/ADR-RES ovarian
  TGI: > 100 µM
PC-3 prostate
  TGI: > 100 µM
A498 renal
  TGI: > 100 µM
